Measurements reported in patent EP2706123A1, “In vitro method for determining genotoxic and non-genotoxic carcinogenicity of a compound” (Rijksinstituut Voor Volksgezondheid En Milieu, priority 2012, dated 2014).
Several values for one entry are separate records, joined by “and”; a condition that tells them apart may be missing. Equal values may be shown once.

Legend:
[1] = tested on: Anks4b; assay: Expression level of marker gene Anks4b in liver of mice exposed for 7 days (microarray); settings: mouse liver, 7 days exposure; for Average Fold Changes of the expression level of marker gene Anks4b: average of 3 - 4 independent repeat experiments, negative value = underexpression (negative inverse of Ratio), dose and route per compound in Table 8; for Fold Change of expression of Anks4b in individual animals: one animal per table line (suffix of Exposure label = animal number), negative value = underexpression
[2] = tested on: Zbtb16; assay: Expression level of marker gene Zbtb16 in liver of mice exposed for 7 days (microarray); settings: mouse liver, 7 days exposure; for Average Fold Changes of the expression level of marker gene Zbtb16: average of 3 - 4 independent repeat experiments, negative value = underexpression (negative inverse of Ratio), dose and route per compound in Table 8; for Fold Change of expression of Zbtb16 in individual animals: one animal per table line (suffix of Exposure label = animal number), negative value = underexpression
[3] = tested on: 9030619P08Rik; assay: Expression level of marker gene 9030619P08Rik in liver of mice exposed for 7 days (microarray); settings: mouse liver, 7 days exposure; for Average Fold Changes of the expression level of marker gene 9030619P08Rik: average of 3 - 4 independent repeat experiments, negative value = underexpression (negative inverse of Ratio), dose and route per compound in Table 8; for Fold Change of expression of 9030619P08Rik in individual animals: one animal per table line (suffix of Exposure label = animal number), negative value = underexpression
[4] = tested on: LOC75771; assay: Expression level of marker gene LOC75771 in liver of mice exposed for 7 days (microarray); settings: mouse liver, 7 days exposure; for Average Fold Changes of the expression level of marker gene LOC75771: average of 3 - 4 independent repeat experiments, negative value = underexpression (negative inverse of Ratio), dose and route per compound in Table 8; for Fold Change of expression of LOC75771 in individual animals: one animal per table line (suffix of Exposure label = animal number), negative value = underexpression
[5] = tested on: Nup62; assay: Expression level of marker gene Nup62 in liver of mice exposed for 7 days (microarray); settings: mouse liver, 7 days exposure; for Average Fold Changes of the expression level of marker gene Nup62: average of 3 - 4 independent repeat experiments, negative value = underexpression (negative inverse of Ratio), dose and route per compound in Table 8; for Fold Change of expression of Nup62 in individual animals: one animal per table line (suffix of Exposure label = animal number), negative value = underexpression
[6] = tested on: Cyp17a1; assay: Expression level of marker gene Cyp17a1 in liver of mice exposed for 7 days (microarray); settings: mouse liver, 7 days exposure; for Average Fold Changes of the expression level of marker gene Cyp17a1: average of 3 - 4 independent repeat experiments, negative value = underexpression (negative inverse of Ratio), dose and route per compound in Table 8; for Fold Change of expression of Cyp17a1 in individual animals: one animal per table line (suffix of Exposure label = animal number), negative value = underexpression

SMILES | Average Fold Changes of the expression level of marker gene Anks4b [1] | Fold Change of expression of Anks4b in individual animals [1] | Average Fold Changes of the expression level of marker gene Zbtb16 [2] | Fold Change of expression of Zbtb16 in individual animals [2] | Average Fold Changes of the expression level of marker gene 9030619P08Rik [3] | Fold Change of expression of 9030619P08Rik in individual animals [3] | Average Fold Changes of the expression level of marker gene LOC75771 [4] | Fold Change of expression of LOC75771 in individual animals [4] | Average Fold Changes of the expression level of marker gene Nup62 [5] | Fold Change of expression of Nup62 in individual animals [5] | Average Fold Changes of the expression level of marker gene Cyp17a1 [6] | Fold Change of expression of Cyp17a1 in individual animals [6]
CC(=O)Nc1ccc2c(c1)Cc1ccccc1-2 [GTXC_2-AAF, 2-Acetylaminofluorene] | 1,87 | 1,655817 and 2,059207 and 2,270806 and 1,587469 | -2,94 | -3,61818 and -2,77847 and -3,11926 and -2,3778 | 1,38 | 1,187438 and 1,340597 and 1,335409 and 1,684509 | 1,64 | 1,705921 and 2,011494 and 1,050507 and 1,984839 | -1,51 | -1,55724 and -1,69925 and -1,3329 and -1,46527 | -1,62 | 1,364397 and -2,15504 and -2,61584 and -1,66057
c1ccc2c(c1)cc1ccc3cccc4ccc2c1c34 [GTXC_BaP, Benzo(a)pyrene] | 1,58 | 2,091694 and 1,512848 and 1,249576 and 1,590135 | -2,08 | -2,2075 and -2,73557 and -2,65608 and -1,1713 | 3,08 | 3,463285 and 3,508919 and 1,242329 and 5,940256 | 1,94 | 2,511058 and 2,153342 and 1,654892 and 1,573528 | -1,40 | -1,46302 and -1,51176 and -1,24257 and -1,41015 | 1,59 | 1,069143 and -1,57076 and 2,426957 and 3,849942
N.N.[Cl][Pt][Cl] [GTXC_CPPD, Cisplatin] | 1,62 | 1,894611 and 1,416897 and 1,570269 | -3,46 | -4,28606 and -2,61037 and -3,7119 | 1,70 | 1,882632 and 3,19679 and -1,23124 | 1,98 | 2,205733 and 1,720149 and 2,049812 | -1,39 | -1,40437 and -1,37437 and -1,38035 | -2,48 | -4,49668 and -2,09626 and -1,61055
CCOc1ccc(NC(C)=O)cc1 [GTXC_Phe, Phenacetin] |  | 1,592469 and 1,221871 and 1,552723 and 1,512243 |  | -4,26686 and -1,26966 and -2,10594 and -2,30082 |  | 2,591988 and 1,278319 and 1,436254 and 4,17095 |  | 1,462697 and 1,408953 and 1,858825 and 1,503018 |  | -1,46978 and -1,41748 and -1,3917 and -1,33382 | 1,82 | 1,929473 and -1,08575 and 2,976794 and 2,054986
CC(C)(c1ccc(O)cc1)c1ccc(O)cc1 [NC_BPA, Bisphenol A] | -1,02 | -1,16229 and 1,285365 and -1,14224 and -1,06695 | -1,23 | 1,114306 and -1,6599 and 1,05274 and -1,63459 | 1,29 | -1,23514 and 2,605592 and 1,167664 and 1,121763 | 1,14 | 1,027932 and 1,306211 and -1,1049 and 1,370273 | -1,04 | -1,01361 and -1,00973 and 1,14385 and -1,3266 | -2,45 | -4,75677 and -1,01075 and -3,4994 and -2,12839
CC(C)CCCCCCCOC(=O)c1ccccc1C(=O)OCCCCCCCC(C)C [NC_DIDP, Diisodecyl phthalate] | 1,17 | 1,254408 and -1,44863 and 1,229508 and 1,74936 | -1,37 | 1,045284 and -1,02838 and -1,15546 and -3,11558 | 1,19 | 1,367458 and -2,48269 and 1,316609 and 2,807593 | 1,26 | 1,468884 and 1,270453 and 1,155297 and 1,177232 | -1,03 | 1,082226 and -1,02869 and 1,206993 and -1,44589 | -1,22 | -1,67941 and 2,746697 and -2,01664 and -1,81914
CCCCC(CC)COC(=O)c1ccccc1C(=O)OCC(CC)CCCC (stereo not shown) [NGTXC_DEHP, Di(2-ethylhexyl)phthalate] | -1,13 | -1,08 and -1,18919 and 1,270926 and -1,59617 | -1,19 | -1,41583 and 1,601817 and -2,52071 and 1,114567 | 3,11 | 1,421539 and 3,741746 and 4,049144 and 4,353386 | 1,12 | 1,152676 and 1,339443 and 1,013056 and 1,023425 | 1,03 | 1,166832 and 1,023361 and -1,1264 and 1,077398 | 2,49 | 6,253363 and 1,806164 and 1,292719 and 2,626167
CC/C(=C(/CC)c1ccc(O)cc1)c1ccc(O)cc1 [NGTXC_DES, Diethylstillbestrol] | -1,02 | 1,020605 and 1,193296 and -1,09903 and -1,20697 | -1,15 | -1,72326 and 1,430939 and 1,400903 and -2,03597 | 8,00 | 3,399244 and 17,02687 and 10,00524 and 7,062258 | -1,06 | -1,13239 and -1,07708 and 1,027336 and -1,04436 | -1,07 | -1,56356 and 1,18178 and -1,04186 and 1,041463 | 10,74 | 9,417864 and 18,44632 and 6,256012 and 12,22566
CCC1(c2ccccc2)C(=O)NC(=O)NC1=O [NGTXC_PBB, Phenobarbital] | 1,47 | 1,857325 and 1,468237 and 1,631778 and 1,048775 | -1,59 | -2,34418 and -1,15391 and -1,99396 and -1,17093 | 15,09 | 10,68519 and 17,28227 and 19,31769 and 14,53071 | 1,17 | 1,084573 and 1,085274 and 1,34375 and 1,18945 | 1,00 | -1,18737 and -1,21348 and 1,070337 and 1,356669 | 2,24 | 1,987088 and 1,966993 and 2,933095 and 2,191937
